Structures can show the parent of a compound that is named as a salt.
What follows are molecules tested on NF-kB-dependent TNF-α secretion (assay: TNF-α secretion assay in THP-1 cells (counter screen, HTRF)). Conditions: Homo sapiens, Pam3CSK4-stimulated, 3 hours.
Type: cell-based
Protocol: Monocytic THP-1 cells were maintained according to providers' instructions in RPMI media as described above. […] Experimental compounds were prepared and added as described above. TNF-α secretion was triggered by the addition of either 1 μg/mL LPS (Sigma, #L4391) or 100 ng/mL Pam3CSK4 (Invivogen, #tlrl-pms) depending on the experiment, and cells were incubated for 3 hours. 10 μL supernatant was removed, and TNF-α levels were monitored using an HTRF assay (CisBio, #62TNFPEC) according to manufacturers' instructions. Viability was monitored as described above.
IC50 values were calculated from the plot of percentage of inhibition versus the inhibitor concentration by a logistics fit according to: y=A2+(A1−A2)/(1+(x/IC50)^p) where y is the %-inhibition at the inhibitor concentration, x. A1 is the lowest inhibition value, i.e. 0%, and A2 the maximum inhibition value, i.e. 100%. The exponent, p, is the Hill coefficient. The curve fitting was conducted with an internally developed software suite. […]

Compound | IC50 [µM]
Cc1c(N[C@@H]2CCCN(C)C2)nnc(-c2ccc(C(F)(F)F)cc2O)c1C [Ex 48, (R)-2-(4,5-Dimethyl-6-((1-methylpiperidin-3-yl)amino)pyridazin-3-yl)-5-(trifluoromethyl)phenol] | > 100
Cc1cc(N[C@@H]2CCCN(C)C2)nnc1-c1ccc(OC(F)(F)F)cc1O [Ex 82, (R)-2-(4-Methyl-6-((1-methylpiperidin-3-yl)amino)pyridazin-3-yl)-5-(trifluoromethoxy)phenol] | > 100
CN1CCC[C@@H](Nc2cc(C(F)(F)F)c(-c3ccc(C(F)(F)F)cc3O)nn2)C1 [Ex 53, (R)-2-(6-((1-Methylpiperidin-3-yl)amino)-4-(trifluoromethyl)pyridazin-3-yl)-5-(trifluoromethyl)phenol] | > 33
Cc1cc(-c2c(C)cc(C(F)(F)F)cc2O)nnc1N[C@@H]1CCCN(C)C1 [Ex 5, (R)-3-Methyl-2-(5-methyl-6-((1-methylpiperidin-3-yl)amino)pyridazin-3-yl)-5-(trifluoromethyl)phenol] | > 33
Cc1cc(C(F)(F)F)cc(O)c1-c1ccc(N[C@@H]2C[C@H](O)CN(C)C2)nn1 [Ex 97, (3S,5R)-5-((6-(2-Hydroxy-6-methyl-4-(trifluoromethyl)phenyl)pyridazin-3-yl)amino)-1-methylpiperidin-3-ol] | > 100
Cc1ccc(-c2nnc(N[C@@H]3CCCN(C)C3)cc2C(F)(F)F)c(O)c1 [Ex 50, (R)-5-Methyl-2-(6-((1-methylpiperidin-3-yl)amino)-4-(trifluoromethyl)pyridazin-3-yl)phenol] | > 100
Cc1cc(C(F)(F)F)cc(O)c1-c1ccc(N[C@@H]2CCCN(C)C2)nn1 [Ex 12, (R)-3-Methyl-2-(6-((1-methylpiperidin-3-yl)amino)pyridazin-3-yl)-5-(trifluoromethyl)phenol] | > 100
CN1CCC[C@@H](Nc2ccc(-c3c(O)cc(C(F)(F)F)cc3C(F)(F)F)nn2)C1 [Ex 39, (R)-2-(6-((1-Methylpiperidin-3-yl)amino)pyridazin-3-yl)-3,5-bis(trifluoromethyl)phenol] | > 100
Cc1cc(C(F)(F)F)cc(O)c1-c1ccc(N[C@H]2CC[C@@H](CO)N(C)C2)nn1 [Ex 87b, 2-(6-(((3S,6S)-6-(Hydroxymethyl)-1-methylpiperidin-3-yl)amino)pyridazin-3-yl)-3-methyl-5-(trifluoromethyl)phenol] | 77
Cc1cc(C(F)(F)F)cc(O)c1-c1ccc(N[C@H]2CCCN(C)C2)nn1 [Ex 36, (S)-3-Methyl-2-(6-((1-methylpiperidin-3-yl)amino)pyridazin-3-yl)-5-(trifluoromethyl)phenol] | > 100
Cc1cc(C(F)(F)F)cc(O)c1-c1ccc(N[C@H]2CCCNC2)nn1 [Ex 33, (S)-3-Methyl-2-(6-(piperidin-3-ylamino)pyridazin-3-yl)-5-(trifluoromethyl)phenol] | > 100
Cc1cc(C(F)(F)F)cc(O)c1-c1ccc(N[C@H]2CC[C@H]3CC[C@@H]2N3CCO)nn1 (single isomer, unassigned) [Ex 86a] | > 100
Cc1cc(-c2c(C)cc(C(F)(F)F)cc2O)nnc1N[C@@H]1CCCNC1 [Ex 100, (R)-3-Methyl-2-(5-methyl-6-(piperidin-3-ylamino)pyridazin-3-yl)-5-(trifluoromethyl)phenol] | > 100
Oc1cc(Cl)cc(Cl)c1-c1ccc(NCC(F)(F)F)nn1 [Ex 27, 3,5-Dichloro-2-(6-((2,2,2-trifluoroethyl)amino)pyridazin-3-yl)phenol] | > 100
CN1CCC[C@@H](Nc2ccc(-c3c(O)cc(Cl)cc3Cl)nn2)C1 [Ex 45, (R)-3,5-Dichloro-2-(6-((1-methylpiperidin-3-yl)amino)pyridazin-3-yl)phenol TFA-salt] | > 100
Cc1cc(C(F)(F)F)cc(O)c1-c1ccc(NC2CNCC(F)(F)C2)nn1 (centres unmarked) [Ex 9, 2-(6-((5,5-Difluoropiperidin-3-yl)amino)pyridazin-3-yl)-3-methyl-5-(trifluoromethyl)phenol] | > 100
Cc1cc(C(F)(F)F)cc(O)c1-c1ccc(N[C@@H]2CC[C@H](CO)N(C)C2)nn1 [Ex 87a, 2-(6-(((3R,6R)-6-(Hydroxymethyl)-1-methylpiperidin-3-yl)amino)pyridazin-3-yl)-3-methyl-5-(trifluoromethyl)phenol] | > 100
CN1CCC[C@@H](Nc2ccc(-c3c(O)cc(C(F)(F)F)cc3Cl)nn2)C1 [Ex 49, (R)-3-Chloro-2-(6-((1-methylpiperidin-3-yl)amino)pyridazin-3-yl)-5-(trifluoromethyl)phenol] | > 100
CN1CCC[C@@H](Nc2cc(C(F)(F)F)c(-c3ccc(Cl)cc3O)nn2)C1 [Ex 70, (R)-5-Chloro-2-(6-((1-methylpiperidin-3-yl)amino)-4-(trifluoromethyl)pyridazin-3-yl)phenol] | > 100

Compound | IC50 [µM]
CN1CCC[C@@H](Nc2ccc(-c3c(O)cc(Cl)cc3C(F)(F)F)nn2)C1 [Ex 51, (R)-5-Chloro-2-(6-((1-methylpiperidin-3-yl)amino)pyridazin-3-yl)-3-(trifluoromethyl)phenol] | > 100
Cc1cc(C(F)(F)F)cc(O)c1-c1ccc(NC2CCC(C(F)(F)F)NC2)nn1 (centres unmarked) [Ex 62, 3-Methyl-5-(trifluoromethyl)-2-(6-((6-(trifluoromethyl)piperidin-3-yl)amino)pyridazin-3-yl)phenol] | > 100
Cc1cc(N[C@@H]2CCCN(C)C2)nnc1-c1ccc(C(F)(F)F)cc1O [Ex 4, (R)-2-(4-Methyl-6-((1-methylpiperidin-3-yl)amino)pyridazin-3-yl)-5-(trifluoromethyl)phenol] | > 100
Cc1cc(C(F)(F)F)cc(O)c1-c1ccc(Nc2cccnc2)nn1 [Ex 46, 3-Methyl-2-(6-(pyridin-3-ylamino)pyridazin-3-yl)-5-(trifluoromethyl)phenol] | > 100
Oc1cc(Cl)cc(Cl)c1-c1ccc(NC2CC2)nn1 [Ex 44, 3,5-Dichloro-2-(6-(cyclopropylamino)pyridazin-3-yl)phenol] | > 100
Cc1cc(C(F)(F)F)cc(O)c1-c1ccc(N[C@H]2CCN(C)C2)nn1 [Ex 18, (S)-3-Methyl-2-(6-((1-methylpyrrolidin-3-yl)amino)pyridazin-3-yl)-5-(trifluoromethyl)phenol] | > 100
CCN1CCC[C@@H](Nc2nnc(-c3c(C)cc(C(F)(F)F)cc3O)cc2C#N)C1 [Ex 11, (R)-3-((1-Ethylpiperidin-3-yl)amino)-6-(2-hydroxy-6-methyl-4-(trifluoromethyl)phenyl)pyridazine-4-carbonitrile] | > 100
Cc1cc(N[C@@H]2CCCN(C)C2)nnc1-c1ccc(Cl)cc1O [Ex 71, (R)-5-Chloro-2-(4-methyl-6-((1-methylpiperidin-3-yl)amino)pyridazin-3-yl)phenol] | > 100
Cc1cc(-c2ccc(C(F)(F)F)cc2O)nnc1N[C@@H]1CCCN(C)C1 [Ex 65, (R)-2-(5-Methyl-6-((1-methylpiperidin-3-yl)amino)pyridazin-3-yl)-5-(trifluoromethyl)phenol] | > 33
CCN1CCC[C@@H](Nc2ccc(-c3c(C)cc(C(F)(F)F)cc3O)nn2)C1 [Ex 1, (R)-2-(6-((1-Ethylpiperidin-3-yl)amino)pyridazin-3-yl)-3-methyl-5-(trifluoromethyl)phenol] | > 100
Cc1cc(C(F)(F)F)cc(O)c1-c1ccc(N[C@@H]2CCCN[C@@H]2C)nn1 [Ex 91b, 3-Methyl-2-(6-(((2R,3R)-2-methylpiperidin-3-yl)amino)pyridazin-3-yl)-5-(trifluoromethyl) phenol] | > 100
CCN1CCC[C@@H](Nc2nnc(-c3c(C)cc(C(F)(F)F)cc3O)cc2C)C1 [Ex 101, (R)-2-(6-((1-Ethylpiperidin-3-yl)amino)-5-methylpyridazin-3-yl)-3-methyl-5-(trifluoromethyl)-phenol] | > 100
Cc1cc(-c2c(C)cc(C(F)(F)F)cc2O)nnc1N[C@@H]1CCCN(CCO)C1 [Ex 13, (R)-2-(6-((1-(2-Hydroxyethyl)piperidin-3-yl)amino)-5-methylpyridazin-3-yl)-3-methyl-5-(trifluoromethyl)phenol] | > 100
Cc1cc(C)c(-c2ccc(N[C@@H]3CCCN(C)C3)nn2)c(O)c1 [Ex 47, (R)-3,5-Dimethyl-2-(6-((1-methylpiperidin-3-yl)amino)pyridazin-3-yl)phenol] | > 100
Cc1cc(C(F)(F)F)cc(O)c1-c1ccc(N[C@@H]2CCCN(CCO)C2)nn1 [Ex 6, (R)-2-(6-((1-(2-Hydroxyethyl)piperidin-3-yl)amino)pyridazin-3-yl)-3-methyl-5-(trifluoromethyl)phenol] | > 100
Cc1cc(C(F)(F)F)cc(O)c1-c1ccc(N[C@@H]2CCCN(CC(C)(C)O)C2)nn1 [Ex 80, (R)-2-(6-((1-(2-Hydroxy-2-methylpropyl)piperidin-3-yl)amino)pyridazin-3-yl)-3-methyl-5-(trifluoromethyl)phenol] | > 33
Cc1cc(C(F)(F)F)cc(O)c1-c1ccc(N[C@@H]2CCCN(C[C@H](C)O)C2)nn1 [Ex 92a, 2-(6-(((R)-1-((S)-2-Hydroxypropyl)piperidin-3-yl)amino)pyridazin-3-yl)-3-methyl-5-(trifluoromethyl)phenol] | > 100
Cc1cc(C(F)(F)F)cc(O)c1-c1ccc(NC2CCCN(C(C)C)C2)nn1 (centres unmarked) [Ex 7, 2-(6-((1-Isopropylpiperidin-3-yl)amino)pyridazin-3-yl)-3-methyl-5-(trifluoromethyl)phenol] | > 100
Cc1cc(C(F)(F)F)cc(O)c1-c1ccc(N[C@@H]2CCCNC2)nn1 [Ex 74, (R)-3-Methyl-2-(6-(piperidin-3-ylamino)pyridazin-3-yl)-5-(trifluoromethyl)phenol] | > 100
